3 molecules from US11667634B2, “Inhibitors of RAF kinases” (Kinnate Biopharma Inc., priority 2019, dated 2023) can be followed below.

For this assay, the target named is human RAF1 (Homo sapiens (Human), UniProt P04049). Briefly: Protein kinase assay (radiometric 33P-ATP, MEK1 (K97R) substrate). It is filed as biochemical. Particulars: substrate human MEK1 (K97R) 3 micromolar, ATP 10 micromolar, 3-fold dilution from 10 micromolar, read-out: RAF-1 IC50. The procedure: Protein kinase assay: Assay platform was used to measure kinase/inhibitor interactions as described previously (Anastassiadis et al., 2011). In brief, for each reaction, kinase and substrate were mixed in a buffer containing 20 mM HEPES (pH 7.5), 10 mM MgCl2, 1 mM EGTA, 0.02% Brij35, 0.02 mg/mL BSA, 0.1 mM Na3VO4, 2 mM DTT, and 1% DMSO. All compounds were solubilized in DMSO. Compounds were then added to each reaction mixture via acoustic dispense using an ECHO 550 nanoliter dispenser. For human RAF1 testing, human MEK1 (K97R) was used as a substrate at a concentration of 3 micromolar, with a final ATP concentration of 10 micromolar. For human BRAF testing, human MEK1 (K97R) was used as a substrate at 1 micromolar concentration, with a final ATP concentration of 25 micromolar. […] After a 20-min incubation, ATP (Sigma-Aldrich, St. Louis, Mo. 63178) and [g33P] ATP (specific activity 10 microCi/microliter) purchased at PerkinElmer (Boston, Mass., 02118 Cat #BLU 003H250UC) were added at a final total concentration of 10 mM. Reactions were carried out at room temperature for 2 hr and spotted onto P81 ion exchange cellulose chromatography paper (Reaction Biology). Filter paper was washed in 0.75% phosphoric acid to remove unincorporated ATP. The percent remaining kinase activity relative to a vehicle-containing (DMSO) kinase reaction was calculated for each kinase/inhibitor pair. IC50 values were calculated using Prism 5 (GraphPad).
Chain of human RAF1 (P04049 whole entry): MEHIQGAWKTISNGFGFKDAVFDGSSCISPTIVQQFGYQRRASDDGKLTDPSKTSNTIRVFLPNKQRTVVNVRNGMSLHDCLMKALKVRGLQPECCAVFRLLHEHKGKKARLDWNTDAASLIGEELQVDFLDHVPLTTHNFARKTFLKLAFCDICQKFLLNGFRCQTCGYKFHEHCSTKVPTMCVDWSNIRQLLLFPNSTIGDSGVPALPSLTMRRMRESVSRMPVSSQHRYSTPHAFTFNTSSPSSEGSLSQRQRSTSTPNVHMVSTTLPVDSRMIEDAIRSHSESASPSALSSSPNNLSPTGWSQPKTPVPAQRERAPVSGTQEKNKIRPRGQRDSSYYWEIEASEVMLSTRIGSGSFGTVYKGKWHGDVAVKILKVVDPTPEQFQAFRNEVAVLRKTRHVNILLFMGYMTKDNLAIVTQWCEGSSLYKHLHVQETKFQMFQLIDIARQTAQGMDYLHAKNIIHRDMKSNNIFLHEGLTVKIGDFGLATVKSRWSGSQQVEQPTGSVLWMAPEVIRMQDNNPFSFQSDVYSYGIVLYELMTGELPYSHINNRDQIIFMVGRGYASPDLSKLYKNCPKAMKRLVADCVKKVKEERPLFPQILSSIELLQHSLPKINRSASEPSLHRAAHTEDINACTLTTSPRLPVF

Regarding `CNc1ncc2cc(-c3cc(NC(=O)N4CCOC(C(F)(F)F)C4)ccc3C)cnc2n1` (stereo in doubt) [Example 58, (2S)-N-[4-methyl-3-2-(methylamino)pyrido[2,3-d]pyrimidin-6-yl]phenyl]-2-(trifluoromethyl)morpholine-4-carboxamide], the IC50 is at most 10 nM. For the molecule `CNc1ncc2cc(-c3cc(NC(=O)N4CC[C@H](OC(F)F)C4)c(F)cc3C)cnc2n1` [Example 28, (S)-3-(difluoromethoxy)-N-(2-fluoro-4-methyl-5-(2-(methylamino)pyrido[2,3-d]pyrimidin-6-yl)phenyl)pyrrolidine-1-carboxamide], the IC50 is at most 10 nM. `C#Cc1nc2nc(NC)ncc2cc1-c1cc(NC(=O)c2ccnc(C(F)(F)F)c2)ccc1C` [Example 67, N-[3-[7-ethynyl-2-(methylamino)pyrido[2,3-d]pyrimidin-6-yl]-4-methylphenyl]-2-(trifluoromethyl)pyridine-4-carboxamide]: the IC50 is at most 10 nM.
